# Laboratory results taken from the NIST ThermoML archive (doi:10.1021/acs.jced.5b01048).
# Numbers after ± are expanded uncertainties.
# Columns and labels:
# [1] = 293.15 K; 101.33 kPa; Liquid; Buoyancy - hydrostatic balance
# [2] = refractive index (Na D-line) (dimensionless); settings: 293.15 K; 101.33 kPa; Liquid; Standard Abbe refractometry
smiles,measurement,setting,value
CO [methanol],mass density,[1],792.2 ± 1 kg/m3
same,refractive index,[2],1.3276 ± 0.0005
O [water],mass density,[1],998.4 ± 1 kg/m3
same,refractive index,[2],1.3328 ± 0.0005
C=CCO [2-propenol],mass density,[1],854 ± 1 kg/m3
same,refractive index,[2],1.4119 ± 0.0005
CCO [ethanol],mass density,[1],790 ± 1 kg/m3
same,refractive index,[2],1.3616 ± 0.0005
